Like-named read-outs stand apart in the source and are kept apart here.
Experiments:
[1] = test system: S. aureus; experiment: MIC assay according to CLSI criteria, Example 2, S. aureus strains; format: cell-based, Staphylococcus aureus; conditions: Staphylococcus aureus, read-out: MIC
Summary of the method: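 Broth microdilution per CLSI in cation-adjusted Mueller Hinton broth, ~5×10^5 exponential-phase cells per well, aerobic at 37° C for 18 hours; OD600 read at end.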

[2] = test system: methicillin-resistant Staphylococcus aureus (MRSA 01, MRSA 15, MRSA 16); experiment: Resistance mutation frequency evaluation, Example 3; format: cell-based

CC(=O)O[C@H]1C[C@@]2(C)[C@@H](C[C@@H](O)[C@H]3[C@@]4(C)CC[C@@H](O)[C@@H](C)[C@@H]4CC[C@@]32C)/C1=C(\CCC=C(C)C)C(=O)O [Fusidic acid, fusidic acid]
8 µg/mL: MIC ([1]; MRSA, strain MRSA 36) | MIC ([1]; MRSA, strain MRSA 38) | MIC ([1]; MRSA, strain MRSA 39) | MIC ([1]; MRSA, strain MRSA 92) | MIC ([1]; MRSA, strain MRSA 95) | MIC ([1]; MRSA, strain MRSA 97) | MIC ([1]; MRSA, strain MRSA 101) | MIC ([1]; MRSA, strain MRSA 103) | MIC ([1]; MRSA, strain MRSA 111)
0.125 µg/mL: MIC ([1]; MRSA, strain MRSA 01) | MIC ([1]; MRSA, strain MRSA 05) | MIC ([1]; MRSA, strain MRSA 06) | MIC ([1]; MRSA, strain MRSA 08) | MIC ([1]; MRSA, strain MRSA 19) | MIC ([1]; MRSA, strain MRSA 20) | MIC ([1]; MRSA, strain MRSA 21) | MIC ([1]; MRSA, strain MRSA 30) | MIC ([1]; MRSA, strain MRSA 40) | MIC ([1]; MRSA, strain MRSA 87) | MIC ([1]; MRSA, strain MRSA 94) | MIC ([1]; MRSA, strain MRSA 96) | MIC ([1]; MRSA, strain MRSA 99) | MIC ([1]; MRSA, strain MRSA 100) | MIC ([1]; MRSA, strain MRSA 105) | MIC ([1]; MRSA, strain MRSA 106) | MIC ([1]; MRSA, strain MRSA 113)
4 µg/mL: MIC ([1]; MRSA, strain MRSA 12) | MIC ([1]; MRSA, strain MRSA 85) | MIC ([1]; MRSA, strain MRSA 108) | MIC ([1]; MSSA, strain MSSA 01) | MIC ([1]; MSSA, strain MSSA 02)
> 16 µg/mL: MIC ([1]; MRSA, strain MRSA 14) | MIC ([1]; MRSA, strain MRSA 86)
3.10^−7: mutational frequency ([2]; at MIC×10)
≥ 4.10^−5: mutational frequency ([2]; at MIC×1)
0.03 µg/mL: MIC ([1]; MRSA, strain MRSA 50)
0.06 µg/mL: MIC ([1]; MRSA, strain MRSA 88)
1 µg/mL: MIC ([1]; MRSA, strain MRSA 10) | MIC ([1]; MRSA, strain MRSA 11)
16 µg/mL: MIC ([1]; MRSA, strain MRSA 03) | MIC ([1]; MRSA, strain MRSA 25) | MIC ([1]; MRSA, strain MRSA 35) | MIC ([1]; MRSA, strain MRSA 72) | MIC ([1]; MRSA, strain MRSA 77) | MIC ([1]; MRSA, strain MRSA 90)
0.25 µg/mL: MIC ([1]; MRSA, strain MRSA 04) | MIC ([1]; MRSA, strain MRSA 07) | MIC ([1]; MRSA, strain MRSA 09) | MIC ([1]; MRSA, strain MRSA 16) | MIC ([1]; MRSA, strain MRSA 18) | MIC ([1]; MRSA, strain MRSA 23) | MIC ([1]; MRSA, strain MRSA 24) | MIC ([1]; MRSA, strain MRSA 27) | MIC ([1]; MRSA, strain MRSA 31) | MIC ([1]; MRSA, strain MRSA 34) | MIC ([1]; MRSA, strain MRSA 42) | MIC ([1]; MRSA, strain MRSA 49) | MIC ([1]; MRSA, strain MRSA 53) | MIC ([1]; MRSA, strain MRSA 64) | MIC ([1]; MRSA, strain MRSA 67) | MIC ([1]; MRSA, strain MRSA 73) | MIC ([1]; MRSA, strain MRSA 74) | MIC ([1]; MRSA, strain MRSA 76) | MIC ([1]; MRSA, strain MRSA 81) | MIC ([1]; MRSA, strain MRSA 91) | MIC ([1]; MRSA, strain MRSA 104) | MIC ([1]; MRSA, strain MRSA 107) | MIC ([1]; MRSA, strain MRSA 109) | MIC ([1]; NEWMAN, strain Newman)
0.5 µg/mL: MIC ([1]; MRSA, strain MRSA 02) | MIC ([1]; MRSA, strain MRSA 26) | MIC ([1]; MRSA, strain MRSA 32) | MIC ([1]; MRSA, strain MRSA 33) | MIC ([1]; MRSA, strain MRSA 37) | MIC ([1]; MRSA, strain MRSA 75) | MIC ([1]; MRSA, strain MRSA 79)

From patent publication US12036312B2, “Non-aqueous topical compositions comprising a halogenated salicylanilide” (priority 2016, dated 2024)
